Assay [1] deals with BCR-ABL+ mouse ALL cells seeded on MSCs (OP9 cells). In words: Clinical compound library screen, imatinib-pretreated MSC / BCR-ABL+ ALL cell co-culture. Type of assay: cell-based. Here is the method:
The effectiveness of the compounds was determined in preventing cluster formation by microscopy and the toxicity of the compounds by bioluminescence imaging of co-cultured MSCs and leukemic cells.
The clinical compounds library was purchased from the John S. Dunn Gulf Coast Consortium for Chemical Genomics (Houston, Tex.). […] Then, luciferase-labeled BCR-ABL+ mouse ALL cells were seeded on to the MSCs. Treatment was continued for 1 day, and the samples were evaluated via phase-contrast microscopy for the formation of leukemic cell clusters underneath the pretreated MSCs. To determine the compounds' toxicity in MSCs or leukemic cells, we examined the MSC/ALL cell co-cultures via microscopy and/or bioluminescence imaging.
Phase-contrast images of co-cultured MSCs and ALL cells were obtained using an Axio Observer.Z1 microscope, an AxioCam MR camera, and AxioVision software (Zeiss, Oberkochen, Germany). For screening, a cluster was defined as a group of more than five leukemic cells under the MSCs. The total number of leukemic cell clusters was the average number of clusters from three different fields (10× objective). For post-screening experiments, a cluster was defined as a group of more than 10 leukemic cells under the MSCs. The total number of leukemic cell clusters was the average number of clusters from 10 different fields (10× objective).

In assay [2] the test system is DU145 cells. The experiment in a line: MTS cell survival assay, DU145 cells. It is filed as cell-based, human. The protocol: (§1) Immunoblotting, Immunofluorescence, RTPCR, wound healing- and tumorsphere assays were performed as previously described (Sarkar et al., 2015). Cell viability (MTS) was assessed using the CellTiter96 Aqueous One-Solution Cell Proliferation Assay kit (Promega).
In general terms: Formazan colour is commonly taken as a measure of viable cells.

A further assay deals with LNCaP cells. The experiment in a line: MTS cell survival assay, LNCaP cells over-expressing FOXC2. Type of assay: cell-based, human. The following applies: LNCaP cells with FOXC2 expression.
Description: Since FOXC2 is induced downstream of several different EMT inducers, and is by itself capable of potentiating the effects of multiple independent EMT signals (Taube et al., 2010), it was queried how ectopic expression of FOXC2 would impact the behavior of epithelial-like LNCaP cells, which are androgen-dependent. […] Again, FOXC2-induced EMT was associated with a reduction in PSA-promoter activity (as determined by loss in GFP) (FIG. 3A-lower panel), as well as loss in AR expression (FIGS. 3B,C).
as §1

Assay [3] has as its system DU145 cells. In words: Morphology and marker expression (qRTPCR, immunoblotting, IF) in DU145 cells. Type of assay: cell-based, human. The settings on record: DU145, LY364947 1 μM. The protocol:
(§2) Cell lines: Authenticated LNCaP, DU145, and PC3 cells were procured from ATCC and cultured in RPMI with 10% fetal bovine serum (FBS) with penicillin/streptomycin. Cells overexpressing EMT transcription factors and shRNA were also cultured in the same media. HEK293T cells were cultured in DMEM with 10% FBS and penicillin/streptomycin. All cell lines used for this study were recently confirmed negative for mycoplasma contamination.
as §1
(Quantitative PCR measures a nucleic acid by following its amplification.)

Assay [4] relates to DU145 cells. In words: Tumorsphere assay, DU145 cells. Type of assay: cell-based, human. The following applies: DU145, LY364947 1 μM. Here is the method:
as §2, §1

Another assay deals with HMLER-Snail cells. The experiment in a line: Sphere formation in ultra-low attachment plates, HMLER-Snail cells. Type of assay: cell-based. The following applies: Homo sapiens, cultured 7-10 days, spheres >75 μm, read-out: Concentration of the drug that induced 50% reduction in sphere formation. The protocol: (§3) (A) HMLER-Snail cells were treated with various p38 inhibitors. Cells were seeded in ultra-low attachment plates and cultured for 7-10 days. Spheres with a diameter greater than […] were counted. The data are reported as the number of spheres formed/1000 seeded cells±SEM. […] (B) SUM159 cells were treated with various p38 inhibitors. Cells were seeded in ultra-low attachment plates and cultured for 7-10 days. Spheres with a diameter greater than 75 μm were counted. The data are reported as the number of spheres formed/1000 seeded cells±SEM. […] (C) HMLE-Snail cells were treated with various p38 inhibitors. Cells were seeded in ultra-low attachment plates and cultured for 7-10 days. Spheres with a diameter greater than 75 μm were counted. The data are reported as the number of spheres formed/1000 seeded cells±SEM. […] (D) Western blots of HMLER-Snail cell treatment with various p38 inhibitors on Day 2 of treatment.

The next assay concerns SUM159 cells. The experiment in a line: Sphere formation in ultra-low attachment plates, SUM159 cells. It is filed as cell-based. The settings on record: Homo sapiens, cultured 7-10 days, read-out: Concentration of the drug that induced 50% reduction in sphere formation. The protocol:
as §3

The next assay relates to HMLE-Snail cells. In words: Sphere formation in ultra-low attachment plates, HMLE-Snail cells. It is filed as cell-based, human. The following applies: cultured 7-10 days; for IC50: Homo sapiens, read-out: Concentration of the drug that induced 50% reduction in sphere formation. Here is the method:
as §3

A further assay has as its system FOXC2. In words: FOXC2 protein levels by immunoblotting in mammary cell lines. Type of assay: cell-based, human. The settings on record: pre-treatment with 10 μM MG132. Here is the method:
Immortalized human mammary epithelial (HMLE) cells expressing empty vector (pWZL), Snail, Twist, Goosecoid (GSC), or an activated form of TGFβ1, V12H-Ras-transformed HMLE (HMLER) and HMLER-FOXC2 cells were maintained as previously described (Elenbaas et al., 2001) For 4-hydroxy-tamoxifen (4-OHT) treatment, HMLE-Snail-ER or HMLE-Twist-ER cells were exposed to 20 nM 4-OHT for the indicated number of days. MCF7, MDA-MB-231 and SUM159 human breast cancer cells and the 4T1 mouse mammary carcinoma cells were cultured as described. Human non-tumorigenic MCF10A cells were cultured as described (Hollier et al., 2013), and treated with 2.5 ng/ml TGFβ1 for 3 days to elicit EMT.
Immunoblotting and immunofluorescence (Mani et al., 2008) were performed as previously described. Primary antibodies were as follows: β-actin (Sigma, St Louis, Mo., USA; A3853), mouse anti-human FOXC2 (Dr. Naoyuki Miura, Hamamatsu University School of Medicine, Japan), goat polyclonal anti-FOXC2 (Santa Cruz Biotechnology, Dallas, Tex., USA; sc-21397), p-p38 (Cell Signaling, Danvers, Mass., USA; 4511), p38 (Cell Signaling; 9211), E-cadherin (BD Biosciences, San Jose, Calif., USA; 61081), fibronectin (BD Biosciences; 610077), vimentin (Novus Biologicals, Littleton, Colo., USA; NB200-623), ZEB1 (Novus Biologicals; NBP1-05987), and HA (Covance, Princeton, N.J., USA; MMS-101P).
In general terms: In western blotting, separated proteins are transferred to a membrane and probed.

For assay [5], the system named is DU145 cells. In words: DU145 subcutaneous tumors in NOD/SCID mice. It is filed as in vivo. The settings on record: subcutaneous dosing 5 days/week; SB203580 0.2 μmols per mouse, Enzalutamide 10 mg/kg; vs vehicle.
Description: To investigate the effect of inhibition of FOXC2-dependent EMT/CSC attributes on tumor formation in vivo, NOD/SCID mice were subcutaneously injected with DU145 cells and began treatment in vivo, after formation of palpable tumors.
Immediately after sacrificing the mice, ˜100 μl blood was isolated via venipuncture in EDTA-treated collection tubes and stored on ice. Within 30 minutes, the blood was spun down at 1200 rpm for 5 minutes, and the pellet resuspended in 1 ml ACK-lysing buffer (Life Tech) and further incubated for 3-5 minutes. Cells were washed once with PBS, resuspended in RPMI with 10% FBS and pen/strep, and cultured on 10 cm tissue culture dishes. RFP-positive colonies (originating from the labeled DU145 cells injected into mice) were counted after 3-4 days in culture and quantified.
˜4 week-old male NOD.CB17-Prkdcscid/J mice were purchased from the Jackson Laboratory (Maine, USA). […] Once palpable tumors were discernable, tumor-bearing mice were randomly segregated into 4 groups, and drug treatment was initiated every 24 hours for 5 days/week. […] Investigators were blinded to the group allocation while assessing experimental outcomes. At the end of the treatment period, tumors were excised, average diameter calculated using calipers, and tumor weight noted. […]
Assay [6] concerns DU145 cells. The following applies: parental DU145 cells, even at 10 μM; cited from earlier work.
In another assay the test system is FOXC2 protein. The experiment in a line: Western blots of FOXC2 protein in HMLER-Snail cells. The following applies: Homo sapiens, 48 h, Day 2 of treatment, read-out: Concentration of the drug that induced 50% reduction in FOXC2 protein. Type of assay: cell-based. Here is the method: as §3
[7] abbreviates: imatinib 5 μM + compound 6.6 μM (dexamethasone 50 nM), 3 days pretreatment + 1 day.

Like-named read-outs stand apart in the source and are kept apart here. Where a SMILES comes first, the peptide text is derived from it. The star is where a group is joined. Cbz = O=C(OCc1ccccc1)*

Regarding `Cc1ccc([N+](=O)[O-])cc1S(=O)(=O)N(C)/N=C/c1cnc2ccc(Br)cn12` [PIK75], in [1] (setting [7]), the “Imatinib-induced leukemic cell cluster formation” value is “eliminated the leukemic cell clusters by eliciting toxicity toward clustered leukemic cells”.

As to `CNCc1ccc(-c2[nH]c3cc(F)cc4c3c2CCNC4=O)cc1` [AG014699], the “Imatinib-induced leukemic cell cluster formation” value in [1] (setting [7]) was “eliminated the leukemic cell clusters by eliciting toxicity toward clustered leukemic cells”.

For the compound `COc1cc2c(cc1OC)[C@@H]1C(=O)c3ccc4c(c3O[C@@H]1CO2)C=CC(C)(C)O4` [DEGUELIN], the “Imatinib-induced leukemic cell cluster formation” value in assay [1] (setting [7]) was “directly prevented imatinib-induced leukemic cell cluster formation”.

Consider `CC(=O)O[C@@]12CO[C@@H]1C[C@H](O)[C@@]1(C)C(=O)[C@H](O)C3=C(C)[C@@H](OC(=O)[C@H](O)[C@@H](NC(=O)OC(C)(C)C)c4ccccc4)C[C@@](O)([C@@H](OC(=O)c4ccccc4)[C@H]21)C3(C)C` [Docetaxel], for which the “Susceptibility of cells to the drug (cell survival)” value with DU145 cells [2] (DU145 with loss of FOXC2 expression, 100 nM Docetaxel) is “more susceptible”. In the assay with LNCaP cells, the “Resistance of cells to the drug (cell survival)” value is given as “increasingly resistant”.

For `Cc1c[nH]c(-c2cnc(NCCNc3ccc(C#N)cn3)nc2-c2ccc(Cl)cc2Cl)n1` [CHIR99021], in assay [1] (setting [7]), the “Imatinib-induced leukemic cell cluster formation” value is reported as “directly prevented imatinib-induced leukemic cell cluster formation”.

Regarding `c1ccc(-c2[nH]ncc2-c2ccnc3ccccc23)nc1` [LY364947], in the assay with DU145 cells [3], the “FOXC2 expression and p38 signaling” value was “concomitant loss in FOXC2 expression and p38 signaling”. Further, the Tumorsphere-forming capacity entry in the assay on DU145 cells [4] is listed as “markedly reduced tumorsphere-forming capacity”.

For `C[C@@H](N)[C@H]1CC[C@H](C(=O)Nc2ccncc2)CC1` [Y-27632], the “Imatinib-induced leukemic cell cluster formation” value in assay [1] (setting [7]) is listed as “directly prevented imatinib-induced leukemic cell cluster formation”.

For `CC(C)(C)Cn1c(N)nc2ccc(-c3[nH]c(C(C)(C)C)nc3-c3ccc(F)cc3)nc21` [LY2228820], the IC50 with HMLER-Snail cells stood at 10 nM; with SUM159 cells, 300 nM; in the assay on HMLE-Snail cells it was 3000 nM.

Take `NC(=O)c1ccc(N(C(N)=O)c2c(F)cccc2F)nc1-c1ccc(F)cc1F` [VX-702]: the IC50 in the assay with HMLER-Snail cells and in the assay on SUM159 cells was 50000 nM each time. Moreover, the “Inhibition of sphere formation” value in the assay with HMLE-Snail cells is reported as “did not inhibit sphere formation”. For the same compound, the “Imatinib-induced leukemic cell cluster formation” value in [1] (setting [7]) is listed as “directly prevented imatinib-induced leukemic cell cluster formation”.

Take `CC(C)C[C@@H](C=O)NC(=O)[C@H](CC(C)C)NC(=O)[C@H](CC(C)C)NC(=O)OCc1ccccc1` [MG132] (Cbz-Leu-Leu-Leu-aldehyde): the “Proteolytic degradation of FOXC2 following SB203580 treatment” value in the assay with FOXC2 was “rescued the proteolytic degradation of FOXC2”.

With `CNC(=O)c1ccc(N2C(=S)N(c3ccc(C#N)c(C(F)(F)F)c3)C(=O)C2(C)C)cc1F` [Enzalutamide], the “Sensitivity of cells to the drug (cell survival)” value in the assay with DU145 cells [2] (DU145 with FOXC2 suppression, 100 nM Enzalutamide) is “more sensitive”. For the same compound, in the assay on LNCaP cells, the “Resistance of cells to the drug (cell survival)” value was “increasingly resistant”. For the same compound, in the assay with DU145 cells [5], the “Tumor size (volume and weight)” value was “no appreciable change in tumor size”. In the assay with DU145 cells [6], the “Sensitivity of cells to the drug” value is reported as “insensitive”.

In the case of `O=C(c1cc(Cc2n[nH]c(=O)c3ccccc23)ccc1F)N1CCN(C(=O)C2CC2)CC1` [AZD2281], in assay [1] (setting [7]), the “Imatinib-induced leukemic cell cluster formation” value is “eliminated the leukemic cell clusters by eliciting toxicity toward clustered leukemic cells”.

As to `CNC(=O)c1ccc(C)c(-n2c(C)cc(OCc3ccc(F)cc3F)c(Br)c2=O)c1` [PH797804], the IC50 with HMLER-Snail cells came to 10 nM; with SUM159 cells it was 100 nM; in the assay with HMLE-Snail cells it was 300 nM; with FOXC2 protein, 50 nM.

For `Cc1ccc(NC(=O)c2ccc(CN3CCN(C)CC3)cc2)cc1Nc1nccc(-c2cccnc2)n1` [imatinib], in the assay on MSCs, the “Phosphorylation of PDGFR-α/β” value is on record as “reduced phosphorylation of PDGFR-α/β”. Also, the “Phosphorylation of ATF2” value in the assay on MSCs (vs control) is “higher phosphorylation of ATF2 than control”.

As for `Oc1ccc(-c2nc(-c3ccc(F)cc3)c(-c3ccncc3)[nH]2)cc1` [SB202190, 4-(4-fluorophenyl)-2-(4-hydroxyphenyl)-5-(4-pyridyl)-1H-imidazole], the “Imatinib-induced leukemic cell cluster formation” value in [1] (setting [7]) is “directly prevented imatinib-induced leukemic cell cluster formation”.

As for `O=C1NC(=O)c2c1c1c3ccccc3n3c1c1c2c2ccccc2n1C1CCC3O1` [SB218078], in assay [1] (setting [7]), the “Imatinib-induced leukemic cell cluster formation” value was “directly prevented imatinib-induced leukemic cell cluster formation”.

For the compound `CN1CCN(c2ccc3nc(-c4c(N)c5c(F)cccc5[nH]c4=O)[nH]c3c2)CC1` [CHIR258], in assay [1], the “Imatinib-induced leukemic cell cluster formation” value was “eliminated the leukemic cell clusters by eliciting toxicity toward clustered leukemic cells”.

Source of the values: patent US20190125735A1, “INHIBITION OF P38 MAPK FOR THE TREATMENT OF CANCER” (Board of Regents, The University of Texas System, priority 2015, published 2019).
